Data on five compounds can be found in publication PMC12442081, “Combating Fuel Biocontamination: Tailored Antimicrobial Peptides and an Innovative Delivery Strategy” (ACS Applied Bio Materials, 2025).

Where no end group is shown, it is not given here.

Series [1] deals with microbial clusters MY, KR, DN, MC, BL, RM, SP, PA, HR. Briefly: Broad-spectrum activity score (in-house scoring matrix). Particulars: sum over 9 microbial clusters: (+) = 1, (X) = 0, Fuel x = -1. How it is done:
Table S4. Summarizing the broad-spectrum activity of the peptides, considering the MIC value/ efficacy to control microbial growth upon fuel co-incubation
Peptides Bacterial clusters Fungal
Actinobacteria Firmicutes Proteobacteria Asco- […]
Peptides identified based on the scoring matrix, where (+) =1 (implying peptide activity in fuel environment); (X) = 0 (implying no activity in the desired range, indicated by microbial proliferation); Fuel x = -1(implying no activity in fuel environment).
Clearly, P17 is the best performing peptide in vitro across diverse microbial phyla as well as when incubated in the fuel environment. Based on the activity of the selected peptides, the best

The test system of the next series is Kocuria rosea (KR). Briefly: Effectiveness of peptides on spiked fuel samples (aqueous layer). The format is cell-based. More on the design: key: (+) =1 (implying peptide activity in fuel environment); (X) = 0 (implying no activity in the desired range, indicated by microbial proliferation); Fuel x = -1(implying no activity in fuel environment). Particulars: initial screening in spiked fuel. How it is done: (§1) To study the partitioning of microbes in fuel tanks, filter-sterilized fuel was mixed with BH medium in a 1:1 (v/v) ratio. The inoculum was added to the aqueous phase at the bottom to simulate growth in the aqueous layer of fuel tanks and incubated aerobically at 30 °C for 30 days. Visible growth was assessed, and aliquots from both the aqueous and fuel phases were plated on nutrient agar plates to evaluate microbial growth. Peptides were initially added to the aqueous layer of microbially spiked fuel samples for screening the effectiveness in the fuel environment. The study was further extended over a longer duration, and incubated under aerobic conditions at 30 °C for 30 days. Microbial growth was monitored at regular intervals by plating aliquots from the aqueous layer on the nutrient agar plates.
(§2) The engineered peptides were administered at their respective MICs to the aqueous layer of simulated fuel samples, and samples from both the aqueous and solvent (fuel) layers were removed at intervals of 7, 14, 21, and 30 days and plated on LBA plates to assess cell viability (Table S5).

Series [2] deals with Sphingomonas paucimobilis (SP). The series is described as above. The format is cell-based. Further details: key: (+) =1 (implying peptide activity in fuel environment); (X) = 0 (implying no activity in the desired range, indicated by microbial proliferation); Fuel x = -1(implying no activity in fuel environment). Particulars: initial screening in spiked fuel. As for the experimental part: as §1, §2

The next series concerns Roseomonas mucosa (RM). The series is described as above. More on the design: key: (+) =1 (implying peptide activity in fuel environment); (X) = 0 (implying no activity in the desired range, indicated by microbial proliferation); Fuel x = -1(implying no activity in fuel environment). Particulars: initial screening in spiked fuel. The format is cell-based. How it is done:
as §1, §2

The subject of series [3] is Bacillus licheniformis (BL). The series is described as above. It is filed as cell-based. More on the design: key: (+) =1 (implying peptide activity in fuel environment); (X) = 0 (implying no activity in the desired range, indicated by microbial proliferation); Fuel x = -1(implying no activity in fuel environment). The note with it: initial screening in spiked fuel. As for the experimental part:
as §1, §2

For series [4], the system named is Macrococcus caseolyticus (MC). The series is described as above. The format is cell-based. Further details: key: (+) =1 (implying peptide activity in fuel environment); (X) = 0 (implying no activity in the desired range, indicated by microbial proliferation); Fuel x = -1(implying no activity in fuel environment). The note with it: initial screening in spiked fuel. As for the experimental part:
as §1, §2

Series [5] deals with Pseudomonas aeruginosa (PA). The series is described as above. It is filed as cell-based. Particulars: initial screening in spiked fuel. Further details: key: (+) =1 (implying peptide activity in fuel environment); (X) = 0 (implying no activity in the desired range, indicated by microbial proliferation); Fuel x = -1(implying no activity in fuel environment). How it is done: as §1, §2

Another series has as its system Hormoconis resinae (HR). The description is as above. It is filed as cell-based. More on the design: key: (+) =1 (implying peptide activity in fuel environment); (X) = 0 (implying no activity in the desired range, indicated by microbial proliferation); Fuel x = -1(implying no activity in fuel environment). The note with it: initial screening in spiked fuel. As for the experimental part:
as §1, §2

Series [6] deals with Dermacoccus nishinomiyaensis (DN). Described as above. The note with it: initial screening in spiked fuel. The format is cell-based. Further details: key: (+) =1 (implying peptide activity in fuel environment); (X) = 0 (implying no activity in the desired range, indicated by microbial proliferation); Fuel x = -1(implying no activity in fuel environment). As for the experimental part:
as §1, §2

For series [7], the system named is Micrococcus yunnanensis (MY). The description is as above. It is filed as cell-based. More on the design: key: (+) =1 (implying peptide activity in fuel environment); (X) = 0 (implying no activity in the desired range, indicated by microbial proliferation); Fuel x = -1(implying no activity in fuel environment). Particulars: initial screening in spiked fuel. As for the experimental part: as §1, §2

Series [8] can be described thus: HPLC retention time as a function of peptide hydrophobicity. It is filed as physicochemical. Particulars: chromatographic, Polaris 5 C18-A reverse phase, 0.1% TFA water / 0.1% TFA acetonitrile gradient, 30 min, 300 μM peptide. As for the experimental part:
The purity of the peptides was ascertained by high-performance liquid chromatography (HPLC) using Polaris 5 C18-A […] × 4.6 mm reverse phase Zorbax columns from Agilent Technologies. The buffer system contained 0.1% (v/v) TFA in 100% water and 0.1% (v/v) TFA in 100% acetonitrile. Each peptide sample contained 300 μM peptides dissolved in an acetonitrile–water (1:4) mixture. A constant gradient of the two solvent systems was used to generate the chromatogram for 30 min after sample injection.

The subject of series [9] is Hormoconis resinae (HR) ATCC 20267. It is filed as cell-based. How it is done:
(§3) All of the bacterial species were grown overnight at 37 °C in LB broth. 10^7 CFU/mL of cells were resuspended in fresh culture and grown until the mid log phase. , The bacterial cells were adjusted to a concentration of 5 × 10^5 CFU/mL to quantify the MIC. Equal volumes of the respective bacterial cultures were incubated with the serially diluted peptides in 96-well microtiter plate and incubated overnight at 37 °C in ambient air. Microorganisms without peptides were treated as the positive control, while uninoculated broth was used as the negative control. The MIC was taken as the lowest peptide concentration at which observable bacteria growth was inhibited, as measured by a microplate reader (Biotek Synergy H1 microplate reader). Experiments were performed in triplicates, and the mean MIC values were determined. A similar study was performed to understand the effect of peptide purity, i.e., ranging from 70 to 95%, on the peptide MIC.
The same experimental procedures that were conducted for the antibacterial assay were used to determine the MIC of the peptides against the fungal strain, H. resinae.

Series [10] concerns Micrococcus yunnanensis (MY) ATCC 12698. The format is cell-based. As for the experimental part:
as §3

Series [11] concerns Pseudomonas aeruginosa (PA) ATCC 39327. The format is cell-based. The note with it: ATCC 39327. As for the experimental part:
as §3

Series [12] relates to Sphingomonas paucimobilis (SP). The format is cell-based. As for the experimental part: as §3
Series [13] concerns Macrococcus caseolyticus (MC) ATCC 13548. The format is cell-based. How it is done:
as §3

For series [14], the system named is Bacillus licheniformis (BL) ATCC 14580. The format is cell-based. Particulars: ATCC 14580. How it is done:
as §3

Series [15] has as its system Kocuria rosea (KR) ATCC 186. The format is cell-based. As for the experimental part: as §3
The subject of series [16] is Dermacoccus nishinomiyaensis (DN) ATCC 29093. It is filed as cell-based. As for the experimental part: as §3
The subject of series [17] is Roseomonas mucosa (RM) ATCC BAA-692. It is filed as cell-based. How it is done: as §3

A word on the MIC: it is the lowest concentration found to suppress growth. Take `CC[C@H](C)[C@H](N)C(=O)N[C@H](C(=O)N1CCC[C@H]1C(=O)N[C@@H](Cc1c[nH]c2ccccc12)C(=O)N[C@@H](CCCCN)C(=O)N[C@@H](Cc1c[nH]c2ccccc12)C(=O)N1CCC[C@H]1C(=O)N[C@@H](Cc1c[nH]c2ccccc12)C(=O)N[C@@H](Cc1c[nH]c2ccccc12)C(=O)N1CCC[C@H]1C(=O)N[C@@H](Cc1c[nH]c2ccccc12)C(=O)N[C@@H](CCCNC(=N)N)C(=O)N[C@@H](CCCNC(=N)N)C(=O)O)[C@@H](C)CC` [P13]: the Score in series [1] was 2. For the same compound, the “activity considering MIC value/efficacy upon fuel co-incubation” value in the series with Kocuria rosea (KR) is “Fuel x”; in series [2] it was “+”; in the series on Roseomonas mucosa (RM) it was “X”; in [3] it was “+”; in series [4] it was “+”; in series [5], “X”. Also, the “activity considering MIC value/efficacy upon fuel co-incubation” value in the series with Hormoconis resinae (HR) is “Fuel x”; in series [6], “X”; in series [7] it was “+”. In addition, in series [8], the “R t, retention time of peptide on HPLC column as a function of peptide hydrophobicity” value (shortened to “R t, retention time of peptide”) was found to be 12.084 min. The MIC in [9] was determined as 7.8 µM; in series [10] it was 0.9 µM; in [11] it was 7.8 µM; in [12], 0.9 µM; in [13], 3.9 µM; in series [14] it was 3.9 µM. In series [15], the minimal inhibitory concentration (MIC) turned out to be 3.9 µM.
Consider ILPWKWPWFPWRR [P6], for which the Score in series [1] was -3. Besides, the “activity considering MIC value/efficacy upon fuel co-incubation” value with Kocuria rosea (KR) is on record as “Fuel x”; in series [2] it was “X”; with Roseomonas mucosa (RM), “X”; in series [3], “Fuel x”; in [4], “X”; in [5], “X”. In addition, the figures for the “activity considering MIC value/efficacy upon fuel co-incubation” value (in the series on Hormoconis resinae (HR); in [6]; in [7]) were “Fuel x”, “Fuel x” and “+”, respectively. Moreover, the “R t, retention time of peptide” value in [8] came to 12.299 min. Further, the MIC in [9] came to 0.9 µM; in series [10] it was 0.9 µM; in series [16] it was 0.9 µM; in [11], 7.8 µM; in series [12], 15.625 µM; in series [14], 0.9 µM. The MIC in [15] came to 0.9 µM.
On to ILPWKWPWWPWRK [P2], for which the Score in [1] is 2. In addition, the “activity considering MIC value/efficacy upon fuel co-incubation” value is listed as “+” with Kocuria rosea (KR); “+” in [2]; “Fuel x” with Roseomonas mucosa (RM); “+” in series [3]; “+” in series [4]; “X” in series [5]. Further, the figures for the “activity considering MIC value/efficacy upon fuel co-incubation” value (with Hormoconis resinae (HR); in series [6]; in series [7]) were “X”, “Fuel x” and “X”, respectively. Besides, the “R t, retention time of peptide” value in series [8] is listed as 12.624 min. The minimal inhibitory concentration (MIC) in series [16] was found to be 0.9 µM; in series [12] it was 0.9 µM; in series [13] it was 1.9 µM; in series [17], 0.9 µM; in [14], 0.9 µM; in series [15], 0.9 µM.
As to ILPWKWPWWVWRR [P5], the Score in series [1] worked out at 3. Moreover, the “activity considering MIC value/efficacy upon fuel co-incubation” value in the series on Kocuria rosea (KR) is recorded as “Fuel x”; in [2], “+”; in the series on Roseomonas mucosa (RM) it was “X”; in [3], “+”; in [4] it was “X”; in [5], “X”. The “activity considering MIC value/efficacy upon fuel co-incubation” value in the series on Hormoconis resinae (HR) is “X”; in series [6], “+”; in series [7] it was “+”. In addition, in [8], the “R t, retention time of peptide” value was 12.045 min. Moreover, the minimal inhibitory concentration (MIC) in series [9] was 62.5 µM; in series [10] it was 0.9 µM; in series [16], 0.9 µM; in [11], 31.25 µM; in [12] it was 0.9 µM; in series [14], 0.9 µM. For the same compound, the MIC in series [15] worked out at 0.9 µM.
Regarding ILPWKWVWWPWRR [P8], the Score in series [1] was 2. Further, the “activity considering MIC value/efficacy upon fuel co-incubation” value is reported as “X” in the series on Kocuria rosea (KR); “+” in series [2]; “X” with Roseomonas mucosa (RM); “+” in [3]; “X” in series [4]; “X” in [5]. Moreover, the “activity considering MIC value/efficacy upon fuel co-incubation” value with Hormoconis resinae (HR) is “X”; in series [6] it was “Fuel x”; in series [7] it was “+”. Moreover, in [8], the “R t, retention time of peptide” value stood at 12.168 min. For the same compound, the MIC in series [9] came to 31.25 µM; in series [10], 0.9 µM; in series [16], 0.9 µM; in [11] it was 15.625 µM; in series [12], 3.91 µM; in [14], 1.9 µM.
